Experimental data taken from patent publication US20220213174A1, “IVIG TREATMENTS FOR SUDDEN SONSORINEURAL HEARING LOSS” (InnoMed Technologies, Inc., priority 2021, published 2022).

Tests used:
[1] = tested on: Hearing Loss, including Sudden Sensorineural Healing Loss; conditions: prednisolone 60 mg per day for 5 days then reduced, or 50 mg per day for 10 days; cited from earlier work
[2] = tested on: Sudden Sensorineural Healing Loss; test: Example 1: treatment of a patient suffering from hearing loss; assay type: in vivo, human; conditions: person; 60 mg/day prednisone therapy alone; two weeks
Protocol: The patient, a person was diagnosed by their doctor after claiming they are suffering from unexplained hearing loss. The patient's doctor diagnosed the patient as suffering from Sudden Sensorineural Healing Loss. […] Two weeks after administration, the patient is co-administered a single dose of IVIG at 2 g/kg and 60 mg prednisone and Sudden Sensorineural Healing Loss related symptoms […].

[3] = tested on: Sudden Sensorineural Hearing Loss; test: Example 2: treatment of a patient suffering from hearing loss; assay type: in vivo, human; conditions: person; 60 mg/day prednisone therapy alone for a month
Protocol: The patient, a person is diagnosed by their doctor as suffering from Sudden Sensorineural Hearing Loss. […] The patient is then administered IVIG at 2 g/kg and 60 mg prednisone. Within three weeks, the Sudden Sensorineural Hearing Loss is resolved by about 80%. The patient is then administered a second dose of IVIG at 2 g/kg and 60 mg. prednisone. Within two weeks, the patient is resolved by about 95%. A week later, the patient's Sudden Sensorineural Hearing Loss symptoms have disappeared and the patient presents as normal.

Compound | outcome and time to complete recovery in patients with Hearing Loss [1] | reduction in the symptoms they suffer [2] | resolution of Sudden Sensorineural Hearing Loss [3]
C[C@]12C=CC(=O)C=C1CC[C@@H]1[C@@H]2[C@@H](O)C[C@@]2(C)[C@H]1CC[C@]2(O)C(=O)CO [prednisolone] | improves outcome | – | –
C[C@]12C=CC(=O)C=C1CC[C@@H]1[C@@H]2C(=O)C[C@@]2(C)[C@H]1CC[C@]2(O)C(=O)CO [prednisone] | – | no reduction | did not resolve
methylprednisone | improves outcome | – | –
